From article PMC9296478, “Discovery of a lectin domain that regulates enzyme activity in mouse N-acetylglucosaminyltransferase-IVa (MGAT4A)” (Communications Biology, 2022)

What was measured:
GnT-IVa lectin domain = biological target: T1, GnT-IVa lectin domain (Mus musculus, UniProt Q812G0); assay: 1H-15N HSQC NMR titration (peak A); format: binding; conditions: 20 mM sodium phosphate pH 6.0, 298 K, 0.4 mM protein; read-out: dissociation constant
T1 construct: gene Mgat4a; C-terminal lectin domain, residues 382-526, expressed in E. coli BL21(DE3) RIPL as GST fusion (pGEX6P-1), GST cleaved by PreScission protease; 15N-labelled for NMR
T1 sequence (Q812G0 382-526 isoform Q812G0-2): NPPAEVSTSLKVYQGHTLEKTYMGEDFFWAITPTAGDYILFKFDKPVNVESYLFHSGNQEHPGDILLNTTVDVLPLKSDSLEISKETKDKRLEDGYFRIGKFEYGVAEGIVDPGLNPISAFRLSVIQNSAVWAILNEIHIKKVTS

[1] = biological target: T2, soluble wild-type GnT-IVa enzyme (Mus musculus, UniProt Q812G0); assay: HPLC assay of PA-labelled product; format: biochemical; conditions: 10 mM MnCl2, 125 mM MES pH 6.25, 200 mM GlcNAc, 37 °C
T2 construct: gene Mgat4a; luminal region, residues 60-526 (catalytic plus lectin domain), N-terminal His tag, secreted from COS7 cells (pcDNA-IH), Ni2+ column purified from medium
T2 sequence (Q812G0 60-526 isoform Q812G0-2 D445A): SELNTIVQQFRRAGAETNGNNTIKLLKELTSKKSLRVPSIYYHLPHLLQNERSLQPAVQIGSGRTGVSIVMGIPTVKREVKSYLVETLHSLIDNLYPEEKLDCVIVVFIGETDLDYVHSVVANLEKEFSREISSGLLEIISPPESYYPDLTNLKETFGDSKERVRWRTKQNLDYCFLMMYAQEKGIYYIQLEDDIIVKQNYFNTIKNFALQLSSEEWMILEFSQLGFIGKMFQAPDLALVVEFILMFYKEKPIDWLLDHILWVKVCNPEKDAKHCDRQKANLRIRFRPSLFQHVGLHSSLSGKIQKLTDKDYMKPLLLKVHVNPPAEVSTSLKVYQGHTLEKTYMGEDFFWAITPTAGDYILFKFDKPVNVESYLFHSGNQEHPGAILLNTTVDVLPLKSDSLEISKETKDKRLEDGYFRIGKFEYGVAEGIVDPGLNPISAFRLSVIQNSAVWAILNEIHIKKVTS

Structure (SMILES)	Kd (GnT-IVa lectin domain) [µM]	further results
CC(=O)N[C@H]1C(O)O[C@H](CO)[C@@H](O)[C@@H]1O (stereo partly shown) [GlcNAc]	3100	
CC(=O)N[C@H]1[C@H](O[C@@H]2C(O)O[C@H](CO)[C@@H](O)[C@@H]2O)O[C@H](CO)[C@@H](O)[C@@H]1O (stereo partly shown) [GlcNAcβ1-2Man]	320	
CC(=O)N[C@H]1[C@@H](OP(=O)(O)OP(=O)(O)OC[C@H]2O[C@@H](n3ccc(=O)[nH]c3=O)[C@H](O)[C@@H]2O)O[C@H](CO)[C@@H](O)[C@@H]1O [UDP-GlcNAc]		Km ([1]; 10 μM GnGnbi-PA, 0.625-20 mM UDP-GlcNAc): 3950 µM
CC(=O)N[C@H]1[C@H](O[C@@H]([C@H](O)[C@H](CNc2ccccn2)NC(C)=O)[C@H](O)CO)O[C@H](CO)[C@@H](O[C@@H]2O[C@H](CO[C@H]3O[C@H](CO)[C@@H](O)[C@H](O)[C@@H]3O[C@@H]3O[C@H](CO)[C@@H](O)[C@H](O)[C@H]3NC(C)=O)[C@@H](O)[C@H](O[C@H]3O[C@H](CO)[C@@H](O)[C@H](O)[C@@H]3O[C@@H]3O[C@H](CO)[C@@H](O)[C@H](O)[C@H]3NC(C)=O)[C@@H]2O)[C@@H]1O [GnGnbi-PA]		Km ([1]; 20 mM UDP-GlcNAc, 32-640 μM acceptor, labelled compound): 1250 µM
